Measured values as given in PMC12615518, “Discovery of CRBN-recruiting PROTAC degraders of the METTL3-METTL14 complex” (Medicinal Chemistry Research, 2025).

How the values were obtained:
[1] = target: T1, METTL14 (Homo sapiens, UniProt Q9HCE5); assay: Immunoblotting (Western blot) degradation of METTL14 in MV4-11 cells; type: cell-based; details: MV4-11 cells, 24 h; for % reduction in MV4-11 cells, 0.3 µM, METTL14 / % reduction in MV4-11 cells, 1.0 µM, METTL14 / % degradation in MV4-11 cells, 0.3 µM, METTL14 / % degradation in MV4-11 cells, 1.0 µM, METTL14: immunoblotting; for % reduction in MV4-11 cells, 0.3 µM, METTL14 / % reduction in MV4-11 cells, 1.0 µM, METTL14: nd = no degradation
T1 construct: Following treatment, total cellular proteins were extracted using RIPA buffer; endogenous in cells; host or cells: MV4-11 (MV4.11) human AML cells, ATCC
T1 sequence (Q9HCE5 whole entry): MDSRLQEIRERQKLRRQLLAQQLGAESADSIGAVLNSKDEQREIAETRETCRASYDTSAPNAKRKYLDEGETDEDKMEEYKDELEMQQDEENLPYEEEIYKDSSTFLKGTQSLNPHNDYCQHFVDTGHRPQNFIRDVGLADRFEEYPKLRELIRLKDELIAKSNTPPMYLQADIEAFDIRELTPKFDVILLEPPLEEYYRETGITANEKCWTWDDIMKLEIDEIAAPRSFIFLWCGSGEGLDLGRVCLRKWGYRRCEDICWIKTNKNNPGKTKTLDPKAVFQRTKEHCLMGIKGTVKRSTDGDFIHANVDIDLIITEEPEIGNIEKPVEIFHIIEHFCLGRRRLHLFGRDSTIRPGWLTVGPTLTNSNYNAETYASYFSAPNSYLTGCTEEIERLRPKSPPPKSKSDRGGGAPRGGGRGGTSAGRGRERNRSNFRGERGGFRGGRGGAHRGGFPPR
T1 sequence (Q86U44 2-580 partner): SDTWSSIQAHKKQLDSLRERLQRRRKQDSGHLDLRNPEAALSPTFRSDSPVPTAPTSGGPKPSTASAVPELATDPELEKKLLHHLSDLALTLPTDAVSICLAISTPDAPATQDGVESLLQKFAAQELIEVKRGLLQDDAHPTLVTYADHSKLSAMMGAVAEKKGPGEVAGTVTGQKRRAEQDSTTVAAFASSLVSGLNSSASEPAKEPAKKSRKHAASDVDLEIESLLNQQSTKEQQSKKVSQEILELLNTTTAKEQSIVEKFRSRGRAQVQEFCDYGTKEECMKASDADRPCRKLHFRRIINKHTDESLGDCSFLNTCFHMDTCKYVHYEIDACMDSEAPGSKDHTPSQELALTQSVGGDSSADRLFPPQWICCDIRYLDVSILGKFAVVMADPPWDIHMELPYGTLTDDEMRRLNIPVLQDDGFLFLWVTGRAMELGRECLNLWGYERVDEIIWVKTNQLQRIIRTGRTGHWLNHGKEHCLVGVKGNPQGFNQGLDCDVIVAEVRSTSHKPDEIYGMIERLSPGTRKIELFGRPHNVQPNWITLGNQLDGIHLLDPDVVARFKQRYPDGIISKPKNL
Procedure: (§1) All cell lines were maintained under standard conditions in a humidified atmosphere at 37 °C with 5% CO₂.
(§2) Western Blot Analysis: Following treatment, total cellular proteins were extracted using RIPA buffer (Auragene, Changsha, China). […] After washing, membranes were incubated with horseradish peroxidase (HRP)-conjugated secondary antibodies (anti-rabbit or anti-mouse IgG; 1:5000) for 2 hours at room temperature. Protein bands were visualized using an enhanced chemiluminescence (ECL) detection kit (Amersham Pharmacia), following the manufacturer's protocol. Band intensities were quantified using ImageJ software and normalized to ACTIN as a loading control. Data was analyzed using GraphPad Prism 9.

[2] = target: METTL3 (Homo sapiens, UniProt Q86U44); assay: Immunoblotting (Western blot) degradation of METTL3 in MV4-11 cells; type: cell-based; design: Following treatment, total cellular proteins were extracted using RIPA buffer; endogenous in cells; host or cells: MV4-11 (MV4.11) human AML cells, ATCC; details: MV4-11 cells, 24 h; for % reduction in MV4-11 cells, 0.3 µM, METTL3 / % reduction in MV4-11 cells, 1.0 µM, METTL3 / % degradation in MV4-11 cells, 0.3 µM, METTL3 / % degradation in MV4-11 cells, 1.0 µM, METTL3: immunoblotting; for % reduction in MV4-11 cells, 0.3 µM, METTL3 / % reduction in MV4-11 cells, 1.0 µM, METTL3: nd = no degradation
Sequence of METTL3 (Q86U44 2-580 limits assumed): as the sequence (Q86U44 2-580 partner) above
Sequence of METTL3 (Q9HCE5 whole entry partner): as the sequence (Q9HCE5 whole entry) above
Procedure: as §1, §2

| % reduction in MV4-11 cells, 0.3 µM, METTL14 [1] | % reduction in MV4-11 cells, 1.0 µM, METTL14 [1] | % reduction in MV4-11 cells, 0.3 µM, METTL3 [2] | % reduction in MV4-11 cells, 1.0 µM, METTL3 [2] | % degradation in MV4-11 cells, 0.3 µM, METTL14 [1] | % degradation in MV4-11 cells, 1.0 µM, METTL14 [1] | % degradation in MV4-11 cells, 0.3 µM, METTL3 [2] | % degradation in MV4-11 cells, 1.0 µM, METTL3 [2] | Structure (SMILES) | also measured |
| --- | --- | --- | --- | --- | --- | --- | --- | --- | --- |
| 40% | 64% | 46% | 69% |  |  |  |  | CC1(C)CCN(Cc2cc(F)c(N3CC(=O)NC4(CCN(c5cc(NCCCCCCCC(=O)N6CCN(c7ccc8c(c7)CN(C7CCC(=O)NC7=O)C8=O)CC6)ncn5)CC4)C3)cc2F)CC1 (stereo not shown) [Compound 4h, 3-(5-(4-(8-((6-(4-(4-((4,4-dimethylpiperidin-1-yl)methyl)-2,5-difluorophenyl)-2-oxo-1,4,9-triazaspiro[5.5]undecan-9-yl)pyrimidin-4-yl)amino)octanoyl)piperazin-1-yl)-1-oxoisoindolin-2-yl)piperidine-2,6-dione] |  |
|  |  |  |  | 20% | 21% | 55% | 56% | CNc1cc(N2CCC3(CC2)CN(c2cc(F)c(CN4CCC(C)(C(=O)NCCCCCCNc5cccc6c5C(=O)N(C5CCC(=O)NC5=O)C6=O)CC4)cc2F)CC(=O)N3)ncn1 (stereo not shown) [Compound 5b, 1-(2,5-difluoro-4-(9-(6-(methylamino)pyrimidin-4-yl)-2-oxo-1,4,9-triazaspiro[5.5]undecan-4-yl)benzyl)-N-(6-((2-(2,6-dioxopiperidin-3-yl)-1,3-dioxoisoindolin-4-yl)amino)hexyl)-4-methylpiperidine-4-carboxamide] |  |
| 54% | 72% | 52% | 73% |  |  |  |  | CC1(C)CCN(Cc2cc(F)c(N3CC(=O)NC4(CCN(c5cc(NCCCCCCCCC(=O)N6CCN(c7ccc8c(c7)CN(C7CCC(=O)NC7=O)C8=O)CC6)ncn5)CC4)C3)cc2F)CC1 (stereo not shown) [Compound 4i, 3-(5-(4-(9-((6-(4-(4-((4,4-dimethylpiperidin-1-yl)methyl)-2,5-difluorophenyl)-2-oxo-1,4,9-triazaspiro[5.5]undecan-9-yl)pyrimidin-4-yl)amino)nonanoyl)piperazin-1-yl)-1-oxoisoindolin-2-yl)piperidine-2,6-dione] |  |
| 0% | 34% | 9% | 25% |  |  |  |  | CC1(C)CCN(Cc2cc(F)c(N3CC(=O)NC4(CCN(c5cc(NCCCCCCC(=O)N6CCN(c7ccc8c(c7)CN(C7CCC(=O)NC7=O)C8=O)CC6)ncn5)CC4)C3)cc2F)CC1 (stereo not shown) [Compound 4g, 3-(5-(4-(7-((6-(4-(4-((4,4-dimethylpiperidin-1-yl)methyl)-2,5-difluorophenyl)-2-oxo-1,4,9-triazaspiro[5.5]undecan-9-yl)pyrimidin-4-yl)amino)heptanoyl)piperazin-1-yl)-1-oxoisoindolin-2-yl)piperidine-2,6-dione] |  |
| 51% | 67% | 52% | 68% |  |  |  |  | CC1(C)CCN(Cc2cc(F)c(N3CC(=O)NC4(CCN(c5cc(NCCCCCCCC(=O)N6CCN(c7ccc8c(c7)C(=O)N(C7CCC(=O)NC7=O)C8=O)CC6)ncn5)CC4)C3)cc2F)CC1 (stereo not shown) [Compound 4d, 5-(4-(8-((6-(4-(4-((4,4-dimethylpiperidin-1-yl)methyl)-2,5-difluorophenyl)-2-oxo-1,4,9-triazaspiro[5.5]undecan-9-yl)pyrimidin-4-yl)amino)octanoyl)piperazin-1-yl)-2-(2,6-dioxopiperidin-3-yl)isoindoline-1,3-dione] |  |
| 39% | 53% | 38% | 52% |  |  |  |  | CC1(C)CCN(Cc2cc(F)c(N3CC(=O)NC4(CCN(c5cc(NCCCCCCCCC(=O)N6CCN(c7ccc8c(c7)C(=O)N(C7CCC(=O)NC7=O)C8=O)CC6)ncn5)CC4)C3)cc2F)CC1 (stereo not shown) [Compound 4e, 5-(4-(9-((6-(4-(4-((4,4-dimethylpiperidin-1-yl)methyl)-2,5-difluorophenyl)-2-oxo-1,4,9-triazaspiro[5.5]undecan-9-yl)pyrimidin-4-yl)amino)nonanoyl)piperazin-1-yl)-2-(2,6-dioxopiperidin-3-yl)isoindoline-1,3-dione] |  |
|  |  |  |  |  |  |  |  | CN1C(=O)CCC(N2Cc3cc(N4CCN(C(=O)CCCCCCCCCNc5cc(N6CCC7(CC6)CN(c6cc(F)c(CN8CCC(C)(C)CC8)cc6F)CC(=O)N7)ncn5)CC4)ccc3C2=O)C1=O (stereo not shown) [Compound 4k, 3-(5-(4-(10-((6-(4-(4-((4,4-dimethylpiperidin-1-yl)methyl)-2,5-difluorophenyl)-2-oxo-1,4,9-triazaspiro[5.5]undecan-9-yl)pyrimidin-4-yl)amino)decanoyl)piperazin-1-yl)-1-oxoisoindolin-2-yl)-1-methylpiperidine-2,6-dione] | degradation of METTL14 at 1 µM (in words) ([1]; 1 µM, Fig. 4A right): not degraded; degradation of METTL14 (in words) ([1]; Table 1 screening): did not induce degradation; degradation of METTL3 at 1 µM (in words) ([2]; 1 µM, Fig. 4A right): not degraded; degradation of METTL3 (in words) ([2]; Table 1 screening): did not induce degradation |
|  |  |  |  | 34% | 21% | 26% | 3% | CNc1cc(N2CCC3(CC2)CN(c2cc(F)c(CN4CCC(C)(C(=O)NCCCCCCCCCCNc5cccc6c5C(=O)N(C5CCC(=O)NC5=O)C6=O)CC4)cc2F)CC(=O)N3)ncn1 (stereo not shown) [Compound 5d, 1-(2,5-difluoro-4-(9-(6-(methylamino)pyrimidin-4-yl)-2-oxo-1,4,9-triazaspiro[5.5]undecan-4-yl)benzyl)-N-(10-((2-(2,6-dioxopiperidin-3-yl)-1,3-dioxoisoindolin-4-yl)amino)decyl)-4-methylpiperidine-4-carboxamide] |  |
| 36% | 58% | 45% | 56% |  |  |  |  | CC1(C)CCN(Cc2cc(F)c(N3CC(=O)NC4(CCN(c5cc(NCCCCCC(=O)N6CCN(c7ccc8c(c7)C(=O)N(C7CCC(=O)NC7=O)C8=O)CC6)ncn5)CC4)C3)cc2F)CC1 (stereo not shown) [Compound 4b, 5-(4-(6-((6-(4-(4-((4,4-dimethylpiperidin-1-yl)methyl)-2,5-difluorophenyl)-2-oxo-1,4,9-triazaspiro[5.5]undecan-9-yl)pyrimidin-4-yl)amino)hexanoyl)piperazin-1-yl)-2-(2,6-dioxopiperidin-3-yl)isoindoline-1,3-dione] |  |
|  |  |  |  | 8% | 21% | 33% | 52% | CNc1cc(N2CCC3(CC2)CN(c2cc(F)c(CN4CCC(C)(C(=O)NCCCCNc5cccc6c5C(=O)N(C5CCC(=O)NC5=O)C6=O)CC4)cc2F)CC(=O)N3)ncn1 (stereo not shown) [Compound 5a, 1-(2,5-difluoro-4-(9-(6-(methylamino)pyrimidin-4-yl)-2-oxo-1,4,9-triazaspiro[5.5]undecan-4-yl)benzyl)-N-(4-((2-(2,6-dioxopiperidin-3-yl)-1,3-dioxoisoindolin-4-yl)amino)butyl)-4-methylpiperidine-4-carboxamide] |  |
|  |  |  |  | 20% | 24% | 50% | 54% | CNc1cc(N2CCC3(CC2)CN(c2cc(F)c(CN4CCC(C)(C(=O)NCCCCCCCCNc5cccc6c5C(=O)N(C5CCC(=O)NC5=O)C6=O)CC4)cc2F)CC(=O)N3)ncn1 (stereo not shown) [Compound 5c, 1-(2,5-difluoro-4-(9-(6-(methylamino)pyrimidin-4-yl)-2-oxo-1,4,9-triazaspiro[5.5]undecan-4-yl)benzyl)-N-(8-((2-(2,6-dioxopiperidin-3-yl)-1,3-dioxoisoindolin-4-yl)amino)octyl)-4-methylpiperidine-4-carboxamide] |  |
| 6% | 27% | 14% | 47% |  |  |  |  | CC1(C)CCN(Cc2cc(F)c(N3CC(=O)NC4(CCN(c5cc(NCCCCC(=O)N6CCN(c7ccc8c(c7)C(=O)N(C7CCC(=O)NC7=O)C8=O)CC6)ncn5)CC4)C3)cc2F)CC1 (stereo not shown) [Compound 4a, 5-(4-(5-((6-(4-(4-((4,4-dimethylpiperidin-1-yl)methyl)-2,5-difluorophenyl)-2-oxo-1,4,9-triazaspiro[5.5]undecan-9-yl)pyrimidin-4-yl)amino)pentanoyl)piperazin-1-yl)-2-(2,6-dioxopiperidin-3-yl)isoindoline-1,3-dione] |  |
| 46% | 61% | 43% | 62% |  |  |  |  | CC1(C)CCN(Cc2cc(F)c(N3CC(=O)NC4(CCN(c5cc(NCCCCCCC(=O)N6CCN(c7ccc8c(c7)C(=O)N(C7CCC(=O)NC7=O)C8=O)CC6)ncn5)CC4)C3)cc2F)CC1 (stereo not shown) [Compound 4c, 5-(4-(7-((6-(4-(4-((4,4-dimethylpiperidin-1-yl)methyl)-2,5-difluorophenyl)-2-oxo-1,4,9-triazaspiro[5.5]undecan-9-yl)pyrimidin-4-yl)amino)heptanoyl)piperazin-1-yl)-2-(2,6-dioxopiperidin-3-yl)isoindoline-1,3-dione] |  |
